Some test systems named below: HCT-15; HL-60; HOP-62; HT-29; NCI-H23; NCI-H522; OVCAR-4; RPMI-8226; RXF 393; SF-268; SF-295; SK-MEL-28; SK-MEL-2; SNB-19; SNB-75; SR; SW-620; TK-10; UACC-257; UACC-62.
Common to all, as to test: inhibition of tumour cell growth, NCI panel, 48 h

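Following 48 hours of exposure in 96-well plates, responses at five concentrations were used to interpolate endpoints linearly. At the GI50, growth is halved.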 The source made the active and inactive calls. Cut-off read from the data, not from the text of the source: active = GI50 up to about 1.1 µM and inactive = higher.

With `CN(C)CCNc1ccc2c(=O)n(CCN(C)C)c(=O)n3c4ccc(O)cc4c(=O)c1c23`, the GI50 in the assay with HCT-15 was 0.045 µM; in the assay with HL-60, < 0.01 µM (active); in the assay with HOP-62 it was < 0.01 µM (active); in the assay with HT-29 it was < 0.01 µM (active); with NCI-H23 it was < 0.01 µM (active); in the assay with NCI-H522, < 0.01 µM (active). Moreover, the GI50 in the assay on OVCAR-4 was 0.106 µM (active); with RPMI-8226, < 0.0104 µM (active); with RXF 393, < 0.0127 µM (active); with SF-268, < 0.0134 µM (active); with SF-295, < 0.01 µM (active); with SK-MEL-28, 0.202 µM (active). Also, the GI50 in the assay on SK-MEL-2 is 0.226 µM (active); in the assay with SNB-19, < 0.0212 µM (active); in the assay with SNB-75, 0.029 µM (active); with SR it was < 0.01 µM (active); with SW-620, < 0.01 µM (active); with TK-10, 0.197 µM (active). Besides, the figures for the GI50 with UACC-257 and in the assay with UACC-62 were 0.149 µM (active) and < 0.0128 µM (active), respectively.
Consider `CCN(CC)CCCn1c(=O)c2ccccc2n2c3c(=O)n(C)c(=O)n(C)c3nc12`, for which the GI50 is 5.83 µM in the assay with HCT-15; 1.58 µM (inactive) with HL-60; 2.77 µM (inactive) in the assay on HOP-62; 6.56 µM (inactive) in the assay with HT-29; 4.67 µM (inactive) in the assay on NCI-H23; 5.74 µM (inactive) in the assay with NCI-H522. In addition, the GI50 with OVCAR-4 was 6.95 µM (inactive); with RPMI-8226 it was 4.66 µM (inactive); in the assay on RXF 393, 16 µM (inactive); with SF-268, 5.9 µM (inactive); in the assay on SF-295 it was 3.43 µM (inactive); with SK-MEL-28, 15.7 µM (inactive). The GI50 in the assay with SK-MEL-2 is 18.3 µM (inactive); with SNB-19, 4.88 µM (inactive); in the assay on SNB-75, 5.92 µM (inactive); in the assay on SR, 0.394 µM (active); in the assay with SW-620, 3.42 µM (inactive); with TK-10, 15.8 µM (inactive). Moreover, the GI50 in the assay on UACC-257 is 10.9 µM (inactive); in the assay with UACC-62, 4.3 µM (inactive).
As for `Cc1cccc2nc3cccc(C(=O)NCCC[N+](C)(CCCNC(=O)c4cccc5nc6cccc(C)c6nc45)Cc4c([N+](=O)[O-])ncn4C)c3nc12`, the GI50 is 0.82 µM with HCT-15; 0.199 µM (active) in the assay with HL-60; 0.993 µM (active) with HOP-62; 0.187 µM (active) in the assay on HT-29; 1.53 µM (inactive) in the assay with NCI-H23; 2.1 µM (inactive) in the assay with NCI-H522. The GI50 with OVCAR-4 is 29 µM (inactive); in the assay on RPMI-8226 it was 0.0436 µM (active); in the assay with RXF 393 it was 4.01 µM (inactive); in the assay on SF-268, 2.43 µM (inactive); with SF-295, 1.35 µM (inactive); with SK-MEL-28, 1.07 µM (active). The GI50 is 6.95 µM (inactive) in the assay with SK-MEL-2; > 1100 µM (inactive) with SNB-19; 233 µM (inactive) with SNB-75; 12.6 µM (inactive) with SR; 0.143 µM (active) in the assay with SW-620; 43.9 µM (inactive) in the assay on TK-10. Besides, the GI50 was 5.22 µM (inactive) with UACC-257 and 0.853 µM (active) with UACC-62.
With `O=c1[nH]c(=O)n(C2CC(O)C(CO)O2)cc1C(F)(C(F)(F)F)C(F)(F)F` (stereo not given), the GI50 with HCT-15 is > 100 µM; in the assay on HL-60, > 100 µM (inactive); in the assay with HOP-62, > 100 µM (inactive); in the assay with HT-29, > 100 µM (inactive); in the assay with NCI-H23, > 100 µM (inactive); with NCI-H522 it was 45.2 µM (inactive). The GI50 with OVCAR-4 was > 100 µM (inactive); with RPMI-8226 it was 45.6 µM (inactive); in the assay on RXF 393 it was > 100 µM (inactive); in the assay on SF-268, > 100 µM (inactive); in the assay on SF-295 it was > 100 µM (inactive); with SK-MEL-28, > 100 µM (inactive). For the same compound, the GI50 in the assay on SK-MEL-2, with SNB-19, in the assay on SNB-75, in the assay on SR, with SW-620 and in the assay on TK-10 was > 100 µM (inactive) throughout. Further, the GI50 with UACC-257 and with UACC-62 was > 100 µM (inactive) in each case.
As to `CC(CCCC1SCC2NC(=O)NC21)C(=O)O` (stereo not given), the GI50 is > 100 µM with HCT-15; > 100 µM (inactive) in the assay with HL-60; > 100 µM (inactive) in the assay with HOP-62; > 100 µM (inactive) with HT-29; > 100 µM (inactive) in the assay on NCI-H23; > 100 µM (inactive) with NCI-H522. Besides, the GI50 in the assay with OVCAR-4, in the assay on RPMI-8226, with RXF 393, with SF-268, with SF-295 and in the assay with SK-MEL-28 was > 100 µM (inactive) each time. The GI50 with SK-MEL-2, in the assay with SNB-19, in the assay with SNB-75, with SR, with SW-620 and in the assay on TK-10 was > 100 µM (inactive) throughout. In addition, the GI50 in the assay on UACC-62 was > 100 µM (inactive).
Consider `CO/C=C(/C(=O)OC)c1ccccc1COc1cccc(C(F)(F)F)c1`, for which the GI50 was 4.19 µM with HCT-15; < 0.01 µM (active) in the assay on HL-60; 12.6 µM (inactive) in the assay with HOP-62; 4.14 µM (inactive) in the assay on HT-29; 2.26 µM (inactive) with NCI-H23; 0.526 µM (active) in the assay with NCI-H522. Besides, the GI50 was 8 µM (inactive) in the assay on OVCAR-4; 0.408 µM (active) in the assay on RPMI-8226; 11.6 µM (inactive) in the assay with RXF 393; 8.77 µM (inactive) in the assay on SF-268; 3.3 µM (inactive) in the assay on SF-295; 22.6 µM (inactive) in the assay with SK-MEL-28. For the same compound, the GI50 in the assay with SK-MEL-2 was 11.6 µM (inactive); with SNB-19 it was 22.1 µM (inactive); in the assay with SNB-75 it was 7.01 µM (inactive); with SR, 0.646 µM (active); in the assay with TK-10 it was 3.18 µM (inactive); in the assay with UACC-257 it was 0.676 µM (active). Moreover, the GI50 with UACC-62 is 0.638 µM (active).
For `CC(/C=C/C(=O)c1sc(C(N)=S)nc1C)=C\c1ccccc1`, the GI50 is > 100 µM with HCT-15; > 100 µM (inactive) with HL-60; > 100 µM (inactive) in the assay on HOP-62; > 100 µM (inactive) in the assay on HT-29; > 100 µM (inactive) in the assay with NCI-H23; 81.8 µM (inactive) with NCI-H522. For the same compound, the GI50 is > 100 µM (inactive) in the assay on OVCAR-4; 19.3 µM (inactive) in the assay with RPMI-8226; > 100 µM (inactive) in the assay on RXF 393; > 100 µM (inactive) in the assay on SF-268; > 100 µM (inactive) with SF-295; > 100 µM (inactive) in the assay on SK-MEL-28. Further, the GI50 in the assay on SK-MEL-2 is > 100 µM (inactive); in the assay with SNB-19, 15.1 µM (inactive); with SNB-75, > 100 µM (inactive); with SR, 31.9 µM (inactive); with TK-10 it was > 100 µM (inactive); with UACC-257, > 100 µM (inactive). Moreover, the GI50 with UACC-62 is > 100 µM (inactive).
Turning to `Cn1c(-c2ccc(/N=N/Nc3ccc(-c4n[nH]c(=S)n4C)cc3)cc2)n[nH]c1=S`, the GI50 was > 100 µM in the assay with HCT-15; 4.6 µM (inactive) in the assay with HL-60; 20.3 µM (inactive) in the assay with HOP-62; > 100 µM (inactive) in the assay with HT-29; 7.8 µM (inactive) in the assay on NCI-H23; 4.05 µM (inactive) in the assay on NCI-H522. Further, the GI50 was > 100 µM (inactive) in the assay with OVCAR-4; 2.79 µM (inactive) with RPMI-8226; 11.6 µM (inactive) in the assay with RXF 393; 16.5 µM (inactive) with SF-268; 18.3 µM (inactive) in the assay on SF-295; > 100 µM (inactive) with SK-MEL-28. Further, the GI50 is 5.7 µM (inactive) in the assay on SK-MEL-2; 17.7 µM (inactive) in the assay with SNB-19; 16 µM (inactive) in the assay on SNB-75; 4.81 µM (inactive) with SR; > 100 µM (inactive) with SW-620; 28.7 µM (inactive) with TK-10. Moreover, the GI50 with UACC-257 was > 100 µM (inactive).
On to `CC(C)CC12CC3CCC(CNC1=O)C32C` (stereo not given), for which the GI50 in the assay with HL-60 was 31.9 µM (inactive); in the assay on HOP-62 it was > 100 µM (inactive); with HT-29, 72.9 µM (inactive); with NCI-H23 it was > 100 µM (inactive); in the assay on NCI-H522, > 100 µM (inactive); with OVCAR-4 it was > 100 µM (inactive). Moreover, the GI50 in the assay with RPMI-8226 was 49.9 µM (inactive); in the assay with RXF 393 it was > 100 µM (inactive); in the assay with SF-268, > 100 µM (inactive); with SF-295, > 100 µM (inactive); in the assay on SK-MEL-28, > 100 µM (inactive); in the assay on SK-MEL-2, > 100 µM (inactive). Besides, the GI50 in the assay on SNB-19 is > 100 µM (inactive); with SNB-75 it was > 100 µM (inactive); in the assay on SR, 63.7 µM (inactive); in the assay on SW-620 it was > 100 µM (inactive); in the assay on TK-10 it was > 100 µM (inactive); with UACC-257, > 100 µM (inactive). Moreover, the GI50 in the assay on UACC-62 was > 100 µM (inactive).
For `O=Cc1cc2c(o1)C(=O)c1ccccc1C2=O`, the GI50 with HCT-15 is 0.281 µM; in the assay with HL-60 it was 0.286 µM (active); in the assay on HOP-62, 0.834 µM (active); in the assay with HT-29 it was 0.581 µM (active); in the assay with NCI-H23, 0.191 µM (active); in the assay with NCI-H522 it was 1.48 µM (inactive). Further, the GI50 in the assay on OVCAR-4 is 1.17 µM (inactive); in the assay with RPMI-8226 it was 1.82 µM (inactive); in the assay on RXF 393 it was 1.35 µM (inactive); with SF-268, 1.55 µM (inactive); in the assay on SF-295, 0.367 µM (active); in the assay on SK-MEL-28, 0.405 µM (active). The GI50 is 0.601 µM (active) in the assay with SK-MEL-2; 0.656 µM (active) in the assay on SNB-19; 0.434 µM (active) in the assay on SNB-75; 0.459 µM (active) in the assay on SR; 0.318 µM (active) in the assay on SW-620; 2.7 µM (inactive) in the assay on TK-10. Further, the GI50 in the assay on UACC-257 was 0.569 µM (active); in the assay with UACC-62, 1.78 µM (inactive).

The values above are taken from ChEMBL document CHEMBL1201862, “PubChem BioAssay data set” (2004).
